Laboratory results from PubChem BioAssay AID2060506 (Molecular Pharmacology Branch, DTP, NCI, 2025).

Test system: 598228-144-R-J1-PDC complex spheroid viability
Assay: Anticancer human tumor 598228-144-R-J1-PDC patient-derived serous endometrial adenocarcinoma cell line growth inhibition [GQUAD]
Details: for IC50: curve of first compound; for viability, T/C: stronger effect = lower value
How it was run: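 Tumor cells were grown as complex spheroids with HUVEC endothelial cells and mesenchymal stem cells as stroma. G-quadruplex stabilizers were combined with targeted agents over half-log dilutions from near the clinical Cmax, or from 10 microM.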

[1] = second compound 0.0316 µM, first compound 0.0316 µM
[2] = second compound 0.0316 µM, first compound 0.316 µM
[3] = second compound 0.1 µM, first compound 0.0316 µM
[4] = second compound 0.1 µM, first compound 0.316 µM
[5] = second compound 0.316 µM, first compound 0.0316 µM
[6] = second compound 0.316 µM, first compound 0.316 µM
[7] = second compound 1 µM, first compound 0.0316 µM
[8] = second compound 1 µM, first compound 0.316 µM
[9] = second compound 3.16 µM, first compound 0.0316 µM
[10] = second compound 3.16 µM, first compound 0.316 µM
[11] = second compound 10 µM, first compound 0.0316 µM
[12] = second compound 10 µM, first compound 0.316 µM
[13] = second compound 0.0316 µM, first compound 0.1 µM
[14] = second compound 0.0316 µM, first compound 1 µM
[15] = second compound 0.0316 µM, first compound 3.16 µM
[16] = second compound 0.0316 µM, first compound 10 µM
[17] = second compound 0.1 µM, first compound 0.1 µM
[18] = second compound 0.1 µM, first compound 1 µM
[19] = second compound 0.1 µM, first compound 3.16 µM
[20] = second compound 0.1 µM, first compound 10 µM
[21] = second compound 0.316 µM, first compound 0.1 µM
[22] = second compound 0.316 µM, first compound 1 µM
[23] = second compound 0.316 µM, first compound 3.16 µM
[24] = second compound 0.316 µM, first compound 10 µM
[25] = second compound 1 µM, first compound 0.1 µM
[26] = second compound 1 µM, first compound 1 µM
[27] = second compound 1 µM, first compound 3.16 µM
[28] = second compound 1 µM, first compound 10 µM
[29] = second compound 3.16 µM, first compound 0.1 µM
[30] = second compound 3.16 µM, first compound 1 µM
[31] = second compound 3.16 µM, first compound 3.16 µM
[32] = second compound 3.16 µM, first compound 10 µM
[33] = second compound 10 µM, first compound 0.1 µM
[34] = second compound 10 µM, first compound 1 µM
[35] = second compound 10 µM, first compound 3.16 µM
[36] = second compound 10 µM, first compound 10 µM
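Note: spheroids exposed to the agents for one week before reading.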
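Throughout, for viability, T/C: percent of vehicle DMSO control viability so 100% = untreated growth.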

Which results are given for `Cc1[nH]c2ccccc2c1CCNCc1ccc(/C=C/C(=O)NO)cc1` + CN(C)c1ccc(Nc2c3ccc(NC(=O)CCN4CCCC4)cc3nc3cc(NC(=O)CCN4CCCC4)ccc23)cc1?
IC50 (second compound 0.0316 µM): 38.7 nM; IC50 (second compound 0.1 µM): 48.5 nM; IC50 (second compound 0.316 µM): 54.1 nM; IC50 (second compound 1 µM): 43 nM; IC50 (second compound 3.16 µM): 44.3 nM; IC50 (second compound 10 µM): 19.6 nM; viability, T/C (second compound 0.0316 µM, first compound 0.000999 µM): 113%; viability, T/C (second compound 0.0316 µM, first compound 0.00316 µM): 94.7%; viability, T/C (second compound 0.0316 µM, first compound 0.00999 µM): 103%; viability, T/C [1]: 46.6%; viability, T/C (second compound 0.0316 µM, first compound 0.0999 µM): 29.1%; viability, T/C [2]: 1.08%; viability, T/C (second compound 0.1 µM, first compound 0.000999 µM): 91.7%; viability, T/C (second compound 0.1 µM, first compound 0.00316 µM): 107%; viability, T/C (second compound 0.1 µM, first compound 0.00999 µM): 86%; viability, T/C [3]: 64.7%; viability, T/C (second compound 0.1 µM, first compound 0.0999 µM): 25.8%; viability, T/C [4]: 0.89%; viability, T/C (second compound 0.316 µM, first compound 0.000999 µM): 114%; viability, T/C (second compound 0.316 µM, first compound 0.00316 µM): 96.8%; viability, T/C (second compound 0.316 µM, first compound 0.00999 µM): 95.7%; viability, T/C [5]: 70.7%; viability, T/C (second compound 0.316 µM, first compound 0.0999 µM): 26.9%; viability, T/C [6]: 0.69%; viability, T/C (second compound 1 µM, first compound 0.000999 µM): 96.9%; viability, T/C (second compound 1 µM, first compound 0.00316 µM): 120%; viability, T/C (second compound 1 µM, first compound 0.00999 µM): 91.2%; viability, T/C [7]: 59.1%; viability, T/C (second compound 1 µM, first compound 0.0999 µM): 23.5%; viability, T/C [8]: 2.25%; viability, T/C (second compound 3.16 µM, first compound 0.000999 µM): 99.9%; viability, T/C (second compound 3.16 µM, first compound 0.00316 µM): 103%; viability, T/C (second compound 3.16 µM, first compound 0.00999 µM): 87.9%; viability, T/C [9]: 66.7%; viability, T/C (second compound 3.16 µM, first compound 0.0999 µM): 13.9%; viability, T/C [10]: 0.99%; viability, T/C (second compound 10 µM, first compound 0.000999 µM): 82.3%; viability, T/C (second compound 10 µM, first compound 0.00316 µM): 102%; viability, T/C (second compound 10 µM, first compound 0.00999 µM): 70.5%; viability, T/C [11]: 33.6%; viability, T/C (second compound 10 µM, first compound 0.0999 µM): 8.01%; viability, T/C [12]: 0.44%

With `O=C(NO)c1cnc(N2CCN(S(=O)(=O)c3ccc4ccccc4c3)CC2)nc1` + CN(C)c1ccc(Nc2c3ccc(NC(=O)CCN4CCCC4)cc3nc3cc(NC(=O)CCN4CCCC4)ccc23)cc1 as the compound, how does the IC50 (second compound 0.0316 µM) read?
The IC50 was 72.9 nM.

And the IC50 (second compound 0.1 µM)?
The IC50 was 104 nM.

And the IC50 (second compound 0.316 µM)?
The IC50 was 100 nM.

What about the IC50 (second compound 1 µM) of the same compound?
Its IC50 is 125 nM.

What about the IC50 (second compound 3.16 µM) of the same compound?
The IC50 was 83.2 nM.

What about the IC50 (second compound 10 µM) of the same compound?
Its IC50 is 52.6 nM.

And the viability, T/C [1]?
The viability, T/C was 79.4%.

What about the viability, T/C [13] of the same compound?
The viability, T/C was 35.2%.

What about the viability, T/C [2] of the same compound?
The viability, T/C was 26.3%.

What about the viability, T/C [14] of the same compound?
The viability, T/C was 0.43%.

What about the viability, T/C [15] of the same compound?
Its viability, T/C is 0.48%.

And the viability, T/C [16]?
Its viability, T/C is 0.27%.

What about the viability, T/C [3] of the same compound?
Its viability, T/C is 87.8%.

And the viability, T/C [17]?
Its viability, T/C is 49.5%.

What about the viability, T/C [4] of the same compound?
Its viability, T/C is 24%.

And the viability, T/C [18]?
The viability, T/C was 0.39%.

What about the viability, T/C [19] of the same compound?
Its viability, T/C is 0.39%.

What about the viability, T/C [20] of the same compound?
Its viability, T/C is 0.25%.

What about the viability, T/C [5] of the same compound?
The viability, T/C was 81.3%.

What about the viability, T/C [21] of the same compound?
Its viability, T/C is 49.5%.

And the viability, T/C [6]?
The viability, T/C was 18.3%.

What about the viability, T/C [22] of the same compound?
Its viability, T/C is 0.5%.

What about the viability, T/C [23] of the same compound?
The viability, T/C was 0.26%.

What about the viability, T/C [24] of the same compound?
The viability, T/C was 0.42%.

What about the viability, T/C [7] of the same compound?
Its viability, T/C is 92.3%.

And the viability, T/C [25]?
The viability, T/C was 56.6%.

And the viability, T/C [8]?
The viability, T/C was 21.2%.

What about the viability, T/C [26] of the same compound?
Its viability, T/C is 0.43%.

And the viability, T/C [27]?
The viability, T/C was 0.22%.

What about the viability, T/C [28] of the same compound?
The viability, T/C was 0.38%.

And the viability, T/C [9]?
The viability, T/C was 108%.

And the viability, T/C [29]?
Its viability, T/C is 38.9%.

And the viability, T/C [10]?
The viability, T/C was 8.39%.

And the viability, T/C [30]?
The viability, T/C was 0.37%.

What about the viability, T/C [31] of the same compound?
Its viability, T/C is 0.29%.

What about the viability, T/C [32] of the same compound?
The viability, T/C was 0.29%.

What about the viability, T/C [11] of the same compound?
Its viability, T/C is 73.7%.

What about the viability, T/C [33] of the same compound?
Its viability, T/C is 19.8%.

What about the viability, T/C [12] of the same compound?
Its viability, T/C is 5.5%.

What about the viability, T/C [34] of the same compound?
The viability, T/C was 0.39%.

What about the viability, T/C [35] of the same compound?
The viability, T/C was 0.39%.

What about the viability, T/C [36] of the same compound?
Its viability, T/C is 0.34%.

Which IC50 (second compound 0.0316 µM) does the source give for `O=c1[nH]cc(F)c(=O)[nH]1` + CN(C)c1ccc(Nc2c3ccc(NC(=O)CCN4CCCC4)cc3nc3cc(NC(=O)CCN4CCCC4)ccc23)cc1 here?
The IC50 was over 10000 nM.

What about the IC50 (second compound 0.1 µM) of the same compound?
The IC50 was over 10000 nM.

And the IC50 (second compound 0.316 µM)?
Its IC50 is over 10000 nM.

And the IC50 (second compound 1 µM)?
Its IC50 is over 10000 nM.

What about the IC50 (second compound 3.16 µM) of the same compound?
The IC50 was over 10000 nM.

What about the IC50 (second compound 10 µM) of the same compound?
Its IC50 is over 10000 nM.

What about the viability, T/C [1] of the same compound?
The viability, T/C was 121%.

What about the viability, T/C [13] of the same compound?
Its viability, T/C is 95%.

And the viability, T/C [2]?
The viability, T/C was 102%.

What about the viability, T/C [14] of the same compound?
The viability, T/C was 91.3%.

What about the viability, T/C [15] of the same compound?
The viability, T/C was 89.8%.

What about the viability, T/C [16] of the same compound?
Its viability, T/C is 90.8%.

And the viability, T/C [3]?
Its viability, T/C is 104%.

What about the viability, T/C [17] of the same compound?
The viability, T/C was 106%.

And the viability, T/C [4]?
The viability, T/C was 132%.

What about the viability, T/C [18] of the same compound?
The viability, T/C was 100%.

And the viability, T/C [19]?
Its viability, T/C is 96.8%.

And the viability, T/C [20]?
Its viability, T/C is 65.5%.

What about the viability, T/C [5] of the same compound?
Its viability, T/C is 103%.

And the viability, T/C [21]?
Its viability, T/C is 105%.

What about the viability, T/C [6] of the same compound?
The viability, T/C was 104%.

And the viability, T/C [22]?
Its viability, T/C is 108%.

And the viability, T/C [23]?
The viability, T/C was 104%.

What about the viability, T/C [24] of the same compound?
The viability, T/C was 97%.

What about the viability, T/C [7] of the same compound?
The viability, T/C was 107%.

And the viability, T/C [25]?
The viability, T/C was 112%.

And the viability, T/C [8]?
The viability, T/C was 106%.

And the viability, T/C [26]?
The viability, T/C was 99.1%.

And the viability, T/C [27]?
The viability, T/C was 111%.

And the viability, T/C [28]?
The viability, T/C was 81.5%.

And the viability, T/C [9]?
Its viability, T/C is 81%.

And the viability, T/C [29]?
Its viability, T/C is 113%.

And the viability, T/C [10]?
Its viability, T/C is 127%.

And the viability, T/C [30]?
The viability, T/C was 98.5%.

And the viability, T/C [31]?
The viability, T/C was 125%.

What about the viability, T/C [32] of the same compound?
The viability, T/C was 61.8%.

What about the viability, T/C [11] of the same compound?
Its viability, T/C is 82.7%.

And the viability, T/C [33]?
Its viability, T/C is 71.3%.

And the viability, T/C [12]?
Its viability, T/C is 95.4%.

And the viability, T/C [34]?
The viability, T/C was 88.7%.

And the viability, T/C [35]?
The viability, T/C was 88.5%.

And the viability, T/C [36]?
Its viability, T/C is 64%.
